Data as given in the supplement of paper PMC8671470.

How the values were obtained:
Settings in all cases: 72 h
[1] = tested on: BV-173; assay: cell viability (% survival relative to DMSO control, bortezomib = 0%); higher = less cytotoxic
Procedure, shortened: (§1)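 Fifteen myeloid leukaemia cell lines were exposed to compounds at 1, 10, 100, 1000 or 10000 nM in 384-well plates for 72 h at 37 °C and 5% CO2. Viability was read by CellTiter-Glo luminescence and normalised, with vehicle as 100% and a 10 µM positive control as 0%. Values are percent survival averaged over duplicates.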

[2] = tested on: MOLM-13; assay: as above
Procedure, shortened: as §1

[3] = tested on: KG-1; assay: as above
Procedure, shortened: as §1

[4] = tested on: HL-60; assay: as above
Procedure, shortened: as §1

[5] = tested on: Mono-Mac-6; assay: as above
Procedure, shortened: as §1

[6] = tested on: K-562; assay: as above
Procedure, shortened: as §1

[7] = tested on: KCL-22; assay: as above
Procedure, shortened: as §1

[8] = tested on: ML-2; assay: as above
Procedure, shortened: as §1

[9] = tested on: HEL; assay: as above
Procedure, shortened: as §1

[10] = tested on: NOMO-1; assay: as above
Procedure, shortened: as §1

[11] = tested on: MV4-11; assay: as above
Procedure, shortened: as §1

[12] = tested on: SHI-1; assay: as above
Procedure, shortened: as §1

[13] = tested on: THP-1; assay: as above
Procedure, shortened: as §1

[14] = tested on: KU-812; assay: as above
Procedure, shortened: as §1

[15] = tested on: HL-60; assay: area under dose-response curve (viability, 1 nM-10 uM) (fraction (0-1)); higher = more sensitive
Procedure, shortened: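 HL-60 cells in RPMI 1640 with 10% FBS were rescreened against the full library on 384-well plates at five tenfold concentrations, 1–10,000 nM, in duplicate. Each screen was run with DMSO or 100 nM of one of three metabolic inhibitors, for 72 h at 37 °C, 5% CO2. Viability was read by CellTiter-Glo and normalised to DMSO and 10 μM proteasome-inhibitor wells. Where given, area under the curve came from four-parameter log-logistic fits (drc, PharmacoGx).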

[16] = tested on: BV-173
Procedure, shortened: (§2)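 In 384-well plates holding acoustically pre-printed compounds at five tenfold doses from 1 to 10,000 nM, in duplicate, fifteen myeloid leukaemia cell lines were grown in RPMI 1640 for 72 h at 37 °C with 5% CO2. Luminescent ATP viability was scaled between vehicle and a positive control at 10 µM. The IC50 was then taken from log-logistic dose–response fits with four parameters.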

[17] = tested on: MOLM-13
Procedure, shortened: as §2

[18] = tested on: KG-1
Procedure, shortened: as §2

[19] = tested on: HL-60
Procedure, shortened: as §2

[20] = tested on: Mono-Mac-6
Procedure, shortened: as §2

[21] = tested on: K-562
Procedure, shortened: as §2

[22] = tested on: KCL-22
Procedure, shortened: as §2

[23] = tested on: ML-2
Procedure, shortened: as §2

[24] = tested on: HEL
Procedure, shortened: as §2

[25] = tested on: LAMA-84
Procedure, shortened: as §2

[26] = tested on: NOMO-1
Procedure, shortened: as §2

[27] = tested on: MV4-11
Procedure, shortened: as §2

[28] = tested on: SHI-1
Procedure, shortened: as §2

[29] = tested on: THP-1
Procedure, shortened: as §2

[30] = tested on: KU-812
Procedure, shortened: as §2

O=C(O)C1=CC(=C(c2ccc(O)c(C(=O)O)c2)c2ccc(O)c(C(=O)O)c2)C=CC1=O [Aurintricarboxylic acid]
Settings	area under dose-response curve, co-treatment: AZD3965 100 nM	area under dose-response curve, co-treatment: DMSO vehicle	area under dose-response curve, co-treatment: GSK2194069 100 nM	area under dose-response curve, co-treatment: pictilisib 100 nM	cell viability, 1 nM [%]	cell viability, 10 nM [%]	cell viability, 100 nM [%]	cell viability, 1000 nM [%]	cell viability, 10000 nM [%]
[1]	–	–	–	–	114	104	107	88.3	9.49
[2]	–	–	–	–	91.3	101	107	82.8	30.9
[3]	–	–	–	–	104	94.5	99.9	89.6	78.9
[4]	–	–	–	–	103	87.8	103	91.1	111
[5]	–	–	–	–	98.6	98.6	104	105	89.7
[6]	–	–	–	–	88.9	104	82	101	128
[7]	–	–	–	–	131	94.8	92	116	119
[8]	–	–	–	–	107	97.7	97.5	96.4	92.9
[9]	–	–	–	–	108	85.9	115	92.5	21.8
[10]	–	–	–	–	95.8	108	109	90.1	80.9
[11]	–	–	–	–	103	100	86.3	97	71.9
[12]	–	–	–	–	104	91.8	99	100	114
[13]	–	–	–	–	105	101	109	97.5	99.4
[14]	–	–	–	–	98	102	106	96	102
[15]	< 0.0301	< 0.0301	< 0.0301	< 0.0301	–	–	–	–	–

Settings	IC50 (cell viability) [µM]
[16]	2.72
[17]	2.64
[18]	> 10
[19]	> 10
[20]	> 10
[21]	> 10
[22]	> 10
[23]	> 10
[24]	3.3
[25]	> 10
[26]	> 10
[27]	> 10
[28]	> 10
[29]	> 10
[30]	> 10

CCCCC/C=C\C/C=C\C/C=C\C/C=C\CCCCN1C(=O)C=CC1=O [N-Arachidonylmaleimide]
Settings	area under dose-response curve, co-treatment: AZD3965 100 nM	area under dose-response curve, co-treatment: DMSO vehicle	area under dose-response curve, co-treatment: GSK2194069 100 nM	area under dose-response curve, co-treatment: pictilisib 100 nM	cell viability, 1 nM [%]	cell viability, 10 nM [%]	cell viability, 100 nM [%]	cell viability, 1000 nM [%]	cell viability, 10000 nM [%]
[1]	–	–	–	–	99.9	97.7	97.8	94.8	96.8
[2]	–	–	–	–	98.8	109	101	110	88
[3]	–	–	–	–	98.9	97.9	101	93.1	103
[4]	–	–	–	–	111	94.7	81.8	125	88.1
[5]	–	–	–	–	94	101	91.1	107	101
[6]	–	–	–	–	103	91.5	93.4	110	90.6
[7]	–	–	–	–	90.9	95.7	100	105	95
[8]	–	–	–	–	95.9	97.1	96.6	94.3	91
[9]	–	–	–	–	98.7	102	97.9	103	89.7
[10]	–	–	–	–	95.5	98.1	103	96.5	99.4
[11]	–	–	–	–	82.1	97.8	106	93.2	95.3
[12]	–	–	–	–	100	102	96.7	104	88.9
[13]	–	–	–	–	102	99.2	101	97.7	96.3
[14]	–	–	–	–	103	97.9	94.6	97.2	91.4
[15]	< 0.0301	< 0.0301	< 0.0301	< 0.0301	–	–	–	–	–

Settings	IC50 (cell viability) [µM]
[16]	> 10
[17]	> 10
[18]	> 10
[19]	> 10
[20]	> 10
[21]	> 10
[22]	> 10
[23]	> 10
[24]	> 10
[25]	> 10
[26]	> 10
[27]	> 10
[28]	> 10
[29]	> 10
[30]	> 10

COc1ccc(CNC(=O)Nc2ncc([N+](=O)[O-])s2)cc1
Settings	area under dose-response curve, co-treatment: AZD3965 100 nM	area under dose-response curve, co-treatment: DMSO vehicle	area under dose-response curve, co-treatment: GSK2194069 100 nM	area under dose-response curve, co-treatment: pictilisib 100 nM	cell viability, 1 nM [%]	cell viability, 10 nM [%]	cell viability, 100 nM [%]	cell viability, 1000 nM [%]	cell viability, 10000 nM [%]
[1]	–	–	–	–	91.7	100	101	97.7	92.7
[2]	–	–	–	–	99.8	108	97.8	102	105
[3]	–	–	–	–	90.5	146	93.8	94.8	173
[4]	–	–	–	–	108	101	115	95.6	104
[5]	–	–	–	–	96	98	96.7	91.3	70.2
[6]	–	–	–	–	85.6	103	108	89.4	97.7
[7]	–	–	–	–	106	97.7	104	102	79.7
[8]	–	–	–	–	91.8	101	107	105	104
[9]	–	–	–	–	111	98	113	108	109
[10]	–	–	–	–	108	97.1	97.9	106	99.5
[11]	–	–	–	–	101	99.1	108	94.7	90.6
[12]	–	–	–	–	105	101	103	106	89.8
[13]	–	–	–	–	101	101	104	105	99.1
[14]	–	–	–	–	97.8	107	92.1	96.7	122
[15]	< 0.0301	< 0.0301	< 0.0301	< 0.0301	–	–	–	–	–

Settings	IC50 (cell viability) [µM]
[16]	> 10
[17]	> 10
[18]	> 10
[19]	> 10
[20]	> 10
[21]	> 10
[22]	> 10
[23]	> 10
[24]	> 10
[25]	> 10
[26]	> 10
[27]	> 10
[28]	> 10
[29]	> 10
[30]	> 10

O=C(O)C(=O)CBr [3-bromopyruvic acid]
Settings	area under dose-response curve, co-treatment: AZD3965 100 nM	area under dose-response curve, co-treatment: DMSO vehicle	area under dose-response curve, co-treatment: GSK2194069 100 nM	area under dose-response curve, co-treatment: pictilisib 100 nM	cell viability, 1 nM [%]	cell viability, 10 nM [%]	cell viability, 100 nM [%]	cell viability, 1000 nM [%]	cell viability, 10000 nM [%]
[1]	–	–	–	–	107	85.9	99	91.7	99.7
[2]	–	–	–	–	95	97.4	89.2	93.8	122
[3]	–	–	–	–	94.9	93.3	111	96	106
[4]	–	–	–	–	89.4	109	103	87.3	167
[5]	–	–	–	–	96.3	93	93.2	105	94.3
[6]	–	–	–	–	91.3	97.6	92.3	103	106
[7]	–	–	–	–	99.6	75.3	91.7	93.1	106
[8]	–	–	–	–	91	78.4	102	102	99.4
[9]	–	–	–	–	90	83.1	92.2	96.2	112
[10]	–	–	–	–	93.3	95	101	98.1	98
[11]	–	–	–	–	93.7	94.7	88.4	101	99.8
[12]	–	–	–	–	98.8	98.3	117	99.6	110
[13]	–	–	–	–	106	85	105	93.4	107
[14]	–	–	–	–	88	88.9	99.8	97.6	105
[15]	< 0.0301	< 0.0301	< 0.0301	< 0.0301	–	–	–	–	–

Settings	IC50 (cell viability) [µM]
[16]	> 10
[17]	> 10
[18]	> 10
[19]	> 10
[20]	> 10
[21]	> 10
[22]	> 10
[23]	> 10
[24]	> 10
[25]	> 10
[26]	> 10
[27]	> 10
[28]	> 10
[29]	> 10
[30]	> 10

CN(C)c1cc(NC(=O)CNC(C)(C)C)c(O)c2c1C[C@H]1C[C@H]3[C@H](N(C)C)C(=O)C(C(N)=O)C(=O)[C@@]3(O)C(=O)C1C2=O (stereo not given in full) [Tigecycline]
Settings	area under dose-response curve, co-treatment: AZD3965 100 nM	area under dose-response curve, co-treatment: DMSO vehicle	area under dose-response curve, co-treatment: GSK2194069 100 nM	area under dose-response curve, co-treatment: pictilisib 100 nM	cell viability, 1 nM [%]	cell viability, 10 nM [%]	cell viability, 100 nM [%]	cell viability, 1000 nM [%]	cell viability, 10000 nM [%]
[1]	–	–	–	–	119	107	97.4	84	83.4
[2]	–	–	–	–	119	84	90.8	96	88.9
[3]	–	–	–	–	111	82.5	104	94.8	66.5
[4]	–	–	–	–	153	81.2	69.6	110	75.6
[5]	–	–	–	–	112	108	100	105	93.7
[6]	–	–	–	–	102	93.4	92.1	90.6	83.4
[7]	–	–	–	–	108	95	96.4	94.6	79.4
[8]	–	–	–	–	118	93.4	90.8	96.4	63
[9]	–	–	–	–	110	92.4	101	99.7	71.6
[10]	–	–	–	–	106	97.7	87	101	99.3
[11]	–	–	–	–	117	89.3	101	88.3	93.2
[12]	–	–	–	–	113	97.9	97.1	115	93.4
[13]	–	–	–	–	107	100	104	105	105
[14]	–	–	–	–	102	97	95.8	94.4	86.8
[15]	< 0.0301	< 0.0301	< 0.0301	< 0.0301	–	–	–	–	–

Settings	IC50 (cell viability) [µM]
[16]	> 10
[17]	> 10
[18]	> 10
[19]	> 10
[20]	> 10
[21]	> 10
[22]	> 10
[23]	> 10
[24]	> 10
[25]	> 10
[26]	> 10
[27]	> 10
[28]	> 10
[29]	> 10
[30]	> 10
